Tests used:
recombinant c-Myc/Max = experiment: Protein assay: electrophoretic mobility shift assay (EMSA) of DNA binding of c-Myc/Max; type: biochemical
Description: Recombinant proteins were prepared as described in the following references: K. C. Jung et al., Fatty Acids, Inhibitors for the DNA Binding of c-Myc/Max Dimer, Suppress Proliferation and Induce Apoptosis of Differentiated HL-60 Human Leukemia Cell, Leukemia, 2006, 20(1), 122-7 or Kyung-Chae Jeong et al., Small-Molecule Inhibitors of c-Myc Transcriptional Factor Suppress Proliferation and Induce Apoptosis of Promyelocytic Leukemia Cell via Cell Cycle Arrest, Mol. BioSyst., 2010, 6, 1503-1509.
The inhibitory activity of each candidate compound on DNA binding of recombinant c-Myc/Max was measured using an electrophoretic mobility shift assay (EMSA). The ratio of protein-DNA complexes in each sample was evaluated by measuring band intensity. The oligonucleotides (E-box, 5'-biotin-[…]-3'-biotin) corresponding to the consensus binding site of Myc/Max were dimerized through an annealing process. The protein mixture was incubated at room temperature for 5 minutes, and a DMSO solution containing each candidate compound was added thereto. The mixture was further incubated for 5 minutes, and the biotinylated DNA was added. To achieve a state of equilibrium, the final mixture was incubated at room temperature for 10 minutes. […] Each band was visualized using HRP-conjugated streptavidin and an ECL solution, and band intensity was measured using image analysis software.

MBT-2 = experiment: Cell based assay, cell viability (CellTiter-Glo), MBT-2; settings: 72 hours, 0 to 2 µM; read-out: cell based assay cell line 1 MBT-2 IC50
KU19-19 = experiment: Cell based assay, cell viability (CellTiter-Glo), KU19-19; settings: Homo sapiens, KU-19-19; 72 hours, 0 to 2 µM; read-out: cell based assay cell line 2 KU19-19 IC50
253J = experiment: Cell based assay, cell viability (CellTiter-Glo), 253J; settings: Homo sapiens; 72 hours, 0 to 2 µM; read-out: cell based assay cell line 3 253J IC50
UM-UC-3 = experiment: Cell based assay, cell viability (CellTiter-Glo), UM-UC-3; settings: Homo sapiens, UMUC3; 72 hours, 0 to 2 µM; read-out: cell based assay cell line 4 UM-UC-3 IC50
[1] = Single toxicity test (IV and IP single dose); type: in vivo, Mouse; settings: 40 mg/kg
zebrafish = experiment: Cardiotoxicity experiment using zebrafish (heart rate, lethality); type: in vivo; settings: 5 µM, n=10; for Changes in heart rate (%): mean
[2] = Cell based assay, cell viability (CellTiter-Glo), RT4 (selectivity); settings: human, rt4 cells; selectivity evaluation, Table 6; benign; read-out: Cytotoxicity (µM) RT4
Description: Commercially available bladder cancer cell lines were treated with trypsin-EDTA and seeded in each well of a 96 well plate, followed by incubation for 24 hours. […] The compound-treated cells were further incubated for 72 hours. Cell viability was measured using an ATP detection method (CellTiter-Glo Luminescent Cell Viability Assay, Promega).
The selectivity of the compounds of the present disclosure to cancer cells was evaluated in the same manner as described in "2. Cell based assay".

| Compound | IC50 (recombinant c-Myc/Max) | IC50 (MBT-2) | IC50 (KU19-19) | IC50 (253J) | IC50 (UM-UC-3) | deaths ([1]; IV and IP single-dose administration of 40 mpk) | General symptoms (feed intake, drinking water intake) ([1]; mouse, in vivo) | Weight changes ([1]; mouse, in vivo) | Percentage ([1]; mouse, in vivo, ip) | mortality ([1]; mouse, in vivo, ip) | Percentage ([1]; mouse, in vivo, iv) | mortality ([1]; mouse, in vivo, iv) | Changes in heart rate (%) (zebrafish) | Lethality (zebrafish) | CC50 at 72 h [2] | Note (heart rate inhibition) (zebrafish) |
| --- | --- | --- | --- | --- | --- | --- | --- | --- | --- | --- | --- | --- | --- | --- | --- | --- |
| CC(=O)c1c(S(=O)(=O)Cc2ccccc2)nc2c(Br)ccc(Cl)c2c1O [Compound 54, 1-(2-(benzylsulfonyl)-8-bromo-5-chloro-4-hydroxyquinolin-3-yl)ethan-1-one] | < 1000 nM | > 2000 nM | > 2000 nM | > 2000 nM | > 2000 nM |  |  |  |  |  |  |  |  |  |  |  |
| CC(=O)c1c([S+]([O-])Cc2ccccc2)nc2c(Br)ccc(Cl)c2c1O (stereo not shown) [Compound 4, 3-acetyl-2-(benzylsulfinyl)-8-bromo-5-chloroquinolin-4(1H)-one] | < 1000 nM | 960 nM | 1050 nM | 1000 nM | 1330 nM | no deaths | no abnormal symptoms | no significant weight changes | 0 (0/2) | 0% | 0 (0/2) | 0% | 88.5% | 1/10 | > 10 µM |  |
| CC(=O)c1c([S+]([O-])Cc2ccc([N+](=O)[O-])cc2)[nH]c2c(Br)ccc(Cl)c2c1=O (stereo not shown) [Compound 33, 3-acetyl-8-bromo-5-chloro-2-((4-nitrobenzyl)sulfinyl)quinolin-4(1H)-one] |  | 900 nM | 1420 nM | 1390 nM | 1110 nM |  |  |  |  |  |  |  | 97.3% | 0/10 | > 10 µM | No significant heart rate inhibition |
